# Data from PubChem BioAssay AID743395 (Broad Institute, 2014).
# “And” between values parts separate entries of the source, which are not always exact repeats. Equal entries are not always repeated.
# System: HepG2 viability, CellTiter-Glo ATP luminescence, 72 h
# Assay: HepG2 cell cytotoxicity, dose response, cytotoxicity control, CellTiter-Glo luminescence, cherry-pick, set 2 (AID 743395)
row,Structure (SMILES),AC35
1,Cc1ccc(/C=N/NC(=O)c2ccc3ccccc3c2)s1,9.16 µM
2,CCOC(=O)c1ccc(Nc2sc(C(=O)c3cccc([N+](=O)[O-])c3)c(N)c2C#N)cc1,6.7 µM
3,COc1ccc(-c2ccc3c(c2)[C@H]2[C@H](CCN2S(=O)(=O)c2ccc(OC)cc2)[C@@H](CO)N3)cc1,14.5 µM
4,N#C/C(=C/c1ccc(N2CCCCC2)o1)C(=O)Nc1ccc2ccccc2c1,21.1 µM
5,Cc1c(C(=O)N/N=C/c2c(O)ccc3ccccc23)nnn1-c1nonc1N,1.32 µM
6,COc1cccc(-c2cnc3c(NC(C)=O)cc(-c4cc(F)ccc4OC)cn23)c1,12.5 µM
7,COc1ccc(O)c(/C=N/NC(=O)c2ccc(N3CCCC3=O)cc2)c1,2.93 µM
8,Cc1ccc(-c2ccc3c(c2)O[C@H](CN(C)Cc2ccccn2)[C@@H](C)CN([C@H](C)CO)S3(=O)=O)cc1,13.8 µM
9,Cc1cc2[nH]c3c(c[n+](C)c4ccccc34)c2cc1C,2.58 µM
10,COC(=O)c1ccc(/C=C/c2c(-c3ccc(OC)cc3)oc3ccc(N4CCOCC4)cc23)cc1,16 µM
11,Cc1cc(N/N=C/c2ccccc2O)c2ccccc2n1,19.7 µM
12,Cc1ccc2[nH]c(-c3ccccc3)cc(=O)c2c1,5.6 µM
13,COc1ccc(-c2ccnc(-c3ccc(O)cc3)n2)cc1,10.1 µM
14,O=C(C1CC1)N1CC(=O)N2[C@H](CO)[C@@H](c3ccc(-c4ccccc4F)cc3)[C@@H]2C1,18.9 µM
15,N#Cc1c(-c2ccc(F)cc2)c(-c2ccc(F)cc2)nn(CCO)c1=O,4.03 µM
16,C[C@@H]1CN([C@@H](C)CO)C(=O)Cc2cc(NC(=O)Nc3cccc4ccccc34)ccc2O[C@@H]1CN(C)Cc1ccc(Cl)c(Cl)c1,14.5 µM
17,CC1(Cc2ccc(F)cc2)C(=O)Nc2c(Cl)ccc(Cl)c21 (configuration not stated),12 µM
18,O=[N+]([O-])c1ccc(N2CCOCC2)c2c1no[n+]2[O-],8.72 µM
19,O=C(CCCl)Nc1nc2c(s1)CCc1ccccc1-2,20.6 µM
20,Cc1ccc(-n2nnnc2SCC(=O)NC(C(=O)O)(c2ccccc2)c2ccccc2)cc1C,15 µM
21,Cc1cc(C)c2nc(Cl)c(CN(Cc3ccco3)C(=O)Nc3ccccc3C)cc2c1,5.84 µM
22,COc1ccc(/C=N/NC(=S)Nc2ccccc2[N+](=O)[O-])cc1O,14.4 µM
23,COC(=O)c1ccccc1-c1c2ccc(=N)cc-2oc2cc(N)ccc12,15.8 µM
24,C[C@H]1CN([C@@H](C)CO)S(=O)(=O)c2ccc(C#CC3CCCCC3)cc2O[C@H]1CN(C)Cc1cccnc1,22.2 µM
25,CCN1/C(=C\c2ccc3cc(C)ccc3[n+]2CC)Sc2cc(C)c(C)cc21,3.19 µM
26,CC1(C(=O)NCc2cccs2)Cc2c(-c3ccc4c(c3)OCO4)ccnc2O1 (configuration not stated),16.4 µM

row,Structure (SMILES),AC35
1,Nc1c(C(=O)c2ccco2)oc2ccccc12,15.8 µM
2,O=C(NCc1ccccc1)C1Cc2c(-c3cccc(F)c3)ccnc2O1 (configuration not stated),22.1 µM
3,Cc1cc(C(=O)N/N=C/c2ccc(N(C)C)cc2)c2ccccc2n1,8.84 µM
4,c1ccc(CCNc2nc(-c3ccccn3)nc3ccccc23)cc1,4.46 µM
5,O=S(=O)(Nc1cc(Sc2cccc3cccnc23)c(O)c2ccccc12)c1ccccc1,7.49 µM
6,CC(=O)NC(c1ccc(C(C)C)cc1)c1ccc2cccnc2c1O (configuration not stated),0.861 µM
7,CN(C)CCNc1ccc2ncn3c4ccc(O)cc4c(=O)c1c23,2.3 µM
8,O=C1C=CCC(/C=C/c2ccccc2)O1 (configuration not stated),19 µM
9,O=C(C1CCCCC1)N1CC(=O)N2[C@@H](CO)[C@H](c3ccc(C#Cc4cccc(F)c4)cc3)[C@@H]2C1,16.4 µM
10,C[n+]1c2cc(N)ccc2cc2ccc(N)cc21,1.17 µM and 2.2 µM
11,Cc1cccc(N(C)C(=O)c2cc3c(=O)[nH]c4ccc(C)cc4c3s2)c1,4.26 µM
12,COc1ccccc1C(=O)NC(=S)/C=C1/N(C)c2ccccc2C1(C)C,16 µM
13,Cc1cccc(N2CCN(S(=O)(=O)c3cc(-c4cc(C)no4)ccc3C)CC2C)c1 (configuration not stated),17.4 µM
14,COc1ccc2sc3cccc(NCCN(C)C)c3c(=O)c2c1,10.4 µM
15,COc1cc(OC)c2c(-c3cccc(-c4cccc(N)c4)c3)cc(=O)oc2c1,13.4 µM
16,O=C(C1CCCC1)N1CC(=O)N2[C@H](CO)[C@@H](c3ccc(-c4ccccc4F)cc3)[C@@H]2C1,16.3 µM
17,COc1ccc(OC)c(-c2cc(-c3cccnc3)nc(N)c2C#N)c1,10.6 µM
18,O=C(CCCN1CCC(O)(c2cccc(C(F)(F)F)c2)CC1)c1ccc(F)cc1,22.2 µM
19,CCN1CCN(c2cc(C)c3cc(NC(=O)c4ccc(OC)c(OC)c4)ccc3n2)CC1,12.4 µM
20,CNc1ccc2c3c(cccc13)C(=O)N(C)C2=O,15.7 µM
21,CCOC(=O)c1ccc(-c2c(-c3cc(OC)c(OC)c(OC)c3)noc2C)cc1F,5.6 µM
22,O=C(N/N=C/c1cc(Br)cc(Cl)c1O)c1ccc2c(c1)OCO2,10.6 µM
23,Cc1ccc(-c2ccc3c(c2)O[C@@H](CN(C)Cc2ccccn2)[C@H](C)CN([C@H](C)CO)S3(=O)=O)cc1,15.3 µM
24,O=C(Nc1nc(-c2ccccn2)cs1)c1ccc(F)c(S(=O)(=O)N2CCOCC2)c1,11.3 µM
25,COc1cc2c(cc1OC)C(C)N(C(=O)Nc1cc(C)cc(C)c1)CC2 (configuration not stated),7.81 µM
26,Nc1ccc2ccc3cccc[n+]3c2c1,21.5 µM
